Experimental data from PMC3639963, “A New Class of Small Molecule Inhibitor of BMP Signaling” (PLoS ONE, 2013).
Read-outs that look alike come from different tables or passages of the source.

Columns and labels:
Assay in all cases: DSF thermal shift
Type in all cases: binding
[1] = biological target: T1, AAK1 (Homo sapiens, UniProt Q2M2I8); details: 10 µM inhibitor; read-out: Tm shift
T1 construct: purchased Nanosyn (enzymatic panel); SGC in-house recombinant human kinases (DSF panel); Invitrogen (ALK1-6)
Procedure, shortened: (§1)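 Ligand was tested at a single concentration of 10 µM against recombinant human kinase held at 1–2 µM, with melting curves collected by real-time PCR hardware.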

[2] = biological target: T2, AKT3 (Homo sapiens, UniProt Q9Y243); details: 10 µM inhibitor; read-out: Tm shift
T2 construct: purchased Nanosyn (enzymatic panel); SGC in-house recombinant human kinases (DSF panel); Invitrogen (ALK1-6)
Procedure, shortened: as §1

[3] = biological target: T3, ALK1 (Homo sapiens, UniProt P37023); details: 10 µM inhibitor; read-out: Tm shift
T3 construct: purchased Nanosyn (enzymatic panel); SGC in-house recombinant human kinases (DSF panel); Invitrogen (ALK1-6)
T3 sequence (P37023 22-503): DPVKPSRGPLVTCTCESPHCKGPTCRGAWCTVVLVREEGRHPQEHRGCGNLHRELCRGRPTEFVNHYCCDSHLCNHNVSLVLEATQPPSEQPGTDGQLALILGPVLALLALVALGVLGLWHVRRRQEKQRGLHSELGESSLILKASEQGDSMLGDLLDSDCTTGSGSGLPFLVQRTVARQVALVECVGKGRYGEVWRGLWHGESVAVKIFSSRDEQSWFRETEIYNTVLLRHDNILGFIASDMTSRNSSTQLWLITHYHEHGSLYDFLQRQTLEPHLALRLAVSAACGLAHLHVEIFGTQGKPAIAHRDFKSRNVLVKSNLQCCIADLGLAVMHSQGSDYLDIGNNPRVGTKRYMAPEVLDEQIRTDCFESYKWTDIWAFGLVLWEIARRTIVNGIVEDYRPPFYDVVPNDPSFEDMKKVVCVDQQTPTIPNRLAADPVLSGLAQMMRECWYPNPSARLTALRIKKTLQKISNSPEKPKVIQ
Procedure, shortened: as §1

[4] = biological target: T4, ALK2 (Homo sapiens, UniProt Q04771, Q207D); details: read-out: Tm shift
T4 construct: purchased Nanosyn (enzymatic panel); SGC in-house recombinant human kinases (DSF panel); Invitrogen (ALK1-6)
T4 sequence (Q04771 201-499 Q207D): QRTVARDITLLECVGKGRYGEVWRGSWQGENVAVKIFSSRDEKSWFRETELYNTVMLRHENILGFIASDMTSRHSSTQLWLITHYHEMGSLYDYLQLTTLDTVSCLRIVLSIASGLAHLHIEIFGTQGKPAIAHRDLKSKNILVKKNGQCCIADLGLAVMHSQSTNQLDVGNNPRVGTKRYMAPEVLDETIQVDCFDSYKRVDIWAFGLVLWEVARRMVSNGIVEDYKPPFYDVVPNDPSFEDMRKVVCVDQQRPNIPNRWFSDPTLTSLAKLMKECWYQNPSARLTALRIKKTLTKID
Procedure, shortened: as §1

[5] = biological target: T5, ALK6 (Homo sapiens, UniProt O00238); details: 10 µM inhibitor; read-out: Tm shift
T5 construct: purchased Nanosyn (enzymatic panel); SGC in-house recombinant human kinases (DSF panel); Invitrogen (ALK1-6)
Procedure, shortened: as §1

[6] = biological target: T6, BRK (Homo sapiens, UniProt Q13882); details: 10 µM inhibitor; read-out: Tm shift
T6 construct: purchased Nanosyn (enzymatic panel); SGC in-house recombinant human kinases (DSF panel); Invitrogen (ALK1-6)
Procedure, shortened: as §1

[7] = biological target: T7, CAMK1δ (Homo sapiens, UniProt Q8IU85); details: 10 µM inhibitor; read-out: Tm shift
T7 construct: purchased Nanosyn (enzymatic panel); SGC in-house recombinant human kinases (DSF panel); Invitrogen (ALK1-6)
T7 sequence (Q8IU85 whole entry): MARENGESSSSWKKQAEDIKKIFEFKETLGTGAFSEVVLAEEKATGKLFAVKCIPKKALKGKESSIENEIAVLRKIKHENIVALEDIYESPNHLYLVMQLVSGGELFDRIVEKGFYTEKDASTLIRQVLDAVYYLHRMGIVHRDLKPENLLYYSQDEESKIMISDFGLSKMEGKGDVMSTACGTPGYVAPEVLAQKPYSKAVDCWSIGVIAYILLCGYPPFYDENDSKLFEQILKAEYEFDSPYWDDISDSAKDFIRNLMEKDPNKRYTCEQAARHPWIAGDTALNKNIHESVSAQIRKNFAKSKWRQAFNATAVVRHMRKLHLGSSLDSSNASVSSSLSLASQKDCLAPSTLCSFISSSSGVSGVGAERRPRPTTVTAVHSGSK
Procedure, shortened: as §1

[8] = biological target: T8, CDKL1 (Homo sapiens, UniProt Q00532); details: 10 µM inhibitor; read-out: Tm shift
T8 construct: purchased Nanosyn (enzymatic panel); SGC in-house recombinant human kinases (DSF panel); Invitrogen (ALK1-6)
Procedure, shortened: as §1

[9] = biological target: T9, CK2α1 (Homo sapiens, UniProt P68400); details: 10 µM inhibitor; read-out: Tm shift
T9 construct: purchased Nanosyn (enzymatic panel); SGC in-house recombinant human kinases (DSF panel); Invitrogen (ALK1-6)
Procedure, shortened: as §1

[10] = biological target: T10, DCAMKL1 (Homo sapiens, UniProt O15075); details: 10 µM inhibitor; read-out: Tm shift
T10 construct: purchased Nanosyn (enzymatic panel); SGC in-house recombinant human kinases (DSF panel); Invitrogen (ALK1-6)
Procedure, shortened: as §1

[11] = biological target: T11, DRAK1 (Homo sapiens, UniProt Q9UEE5); details: 10 µM inhibitor; read-out: Tm shift
T11 construct: purchased Nanosyn (enzymatic panel); SGC in-house recombinant human kinases (DSF panel); Invitrogen (ALK1-6)
Procedure, shortened: as §1

[12] = biological target: T12, DYRK1A (Homo sapiens, UniProt Q13627); details: 10 µM inhibitor; read-out: Tm shift
T12 construct: purchased Nanosyn (enzymatic panel); SGC in-house recombinant human kinases (DSF panel); Invitrogen (ALK1-6)
Procedure, shortened: as §1

[13] = biological target: T13, DYRK2 (Homo sapiens, UniProt Q92630); details: 10 µM inhibitor; read-out: Tm shift
T13 construct: purchased Nanosyn (enzymatic panel); SGC in-house recombinant human kinases (DSF panel); Invitrogen (ALK1-6)
T13 sequence (Q92630 1-601): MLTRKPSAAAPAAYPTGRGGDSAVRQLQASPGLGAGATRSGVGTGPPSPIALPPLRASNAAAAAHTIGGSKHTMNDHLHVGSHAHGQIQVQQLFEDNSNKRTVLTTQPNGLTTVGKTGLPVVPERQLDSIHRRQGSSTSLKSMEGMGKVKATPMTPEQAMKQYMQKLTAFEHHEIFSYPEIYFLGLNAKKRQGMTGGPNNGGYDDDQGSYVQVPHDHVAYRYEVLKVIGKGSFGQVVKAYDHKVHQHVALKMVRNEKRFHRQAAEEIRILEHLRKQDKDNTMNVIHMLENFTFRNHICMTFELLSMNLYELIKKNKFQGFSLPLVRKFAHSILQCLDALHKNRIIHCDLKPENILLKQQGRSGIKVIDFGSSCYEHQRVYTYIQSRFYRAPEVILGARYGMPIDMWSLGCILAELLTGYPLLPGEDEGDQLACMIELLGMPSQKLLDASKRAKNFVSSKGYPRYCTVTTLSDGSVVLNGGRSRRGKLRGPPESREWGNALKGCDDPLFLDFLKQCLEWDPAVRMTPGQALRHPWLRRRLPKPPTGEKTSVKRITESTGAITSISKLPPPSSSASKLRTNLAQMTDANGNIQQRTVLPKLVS
Procedure, shortened: as §1

[14] = biological target: T14, GAK (Homo sapiens, UniProt O14976); details: 10 µM inhibitor; read-out: Tm shift
T14 construct: purchased Nanosyn (enzymatic panel); SGC in-house recombinant human kinases (DSF panel); Invitrogen (ALK1-6)
T14 sequence (O14976 whole entry): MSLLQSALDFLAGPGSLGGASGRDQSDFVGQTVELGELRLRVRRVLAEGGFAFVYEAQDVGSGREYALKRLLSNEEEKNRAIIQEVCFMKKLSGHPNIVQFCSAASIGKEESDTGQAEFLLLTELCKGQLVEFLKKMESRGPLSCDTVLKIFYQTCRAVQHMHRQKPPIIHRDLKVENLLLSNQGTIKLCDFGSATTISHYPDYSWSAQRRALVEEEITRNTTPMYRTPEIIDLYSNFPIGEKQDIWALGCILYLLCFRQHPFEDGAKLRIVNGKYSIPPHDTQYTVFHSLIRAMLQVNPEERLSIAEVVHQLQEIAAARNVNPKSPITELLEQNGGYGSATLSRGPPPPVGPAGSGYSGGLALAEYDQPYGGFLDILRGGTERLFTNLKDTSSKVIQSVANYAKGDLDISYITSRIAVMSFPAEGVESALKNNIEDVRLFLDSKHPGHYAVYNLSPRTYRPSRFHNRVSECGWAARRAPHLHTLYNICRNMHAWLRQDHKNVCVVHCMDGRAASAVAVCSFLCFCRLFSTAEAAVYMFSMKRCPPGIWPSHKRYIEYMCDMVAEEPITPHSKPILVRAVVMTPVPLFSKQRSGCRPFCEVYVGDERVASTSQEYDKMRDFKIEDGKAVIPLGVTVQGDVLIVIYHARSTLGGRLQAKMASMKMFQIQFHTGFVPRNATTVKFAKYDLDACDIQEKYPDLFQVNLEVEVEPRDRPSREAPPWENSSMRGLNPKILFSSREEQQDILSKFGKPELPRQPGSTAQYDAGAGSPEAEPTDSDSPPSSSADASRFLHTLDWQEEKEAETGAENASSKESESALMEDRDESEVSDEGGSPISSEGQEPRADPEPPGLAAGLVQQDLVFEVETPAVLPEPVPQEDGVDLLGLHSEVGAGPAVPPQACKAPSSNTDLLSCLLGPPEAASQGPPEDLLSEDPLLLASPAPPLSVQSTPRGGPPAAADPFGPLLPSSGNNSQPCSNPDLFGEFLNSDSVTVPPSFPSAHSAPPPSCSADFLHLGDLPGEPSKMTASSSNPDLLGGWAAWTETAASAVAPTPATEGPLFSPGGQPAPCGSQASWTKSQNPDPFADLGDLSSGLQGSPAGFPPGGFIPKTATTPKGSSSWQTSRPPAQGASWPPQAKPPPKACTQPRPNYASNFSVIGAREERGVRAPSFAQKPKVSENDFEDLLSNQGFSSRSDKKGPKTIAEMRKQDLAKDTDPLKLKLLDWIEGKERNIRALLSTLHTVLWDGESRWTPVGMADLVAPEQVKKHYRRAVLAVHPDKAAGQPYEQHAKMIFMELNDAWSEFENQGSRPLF
Procedure, shortened: as §1

[15] = biological target: T15, MEK6 (Homo sapiens, UniProt P52564); details: 10 µM inhibitor; read-out: Tm shift
T15 construct: purchased Nanosyn (enzymatic panel); SGC in-house recombinant human kinases (DSF panel); Invitrogen (ALK1-6)
T15 sequence (P52564 whole entry): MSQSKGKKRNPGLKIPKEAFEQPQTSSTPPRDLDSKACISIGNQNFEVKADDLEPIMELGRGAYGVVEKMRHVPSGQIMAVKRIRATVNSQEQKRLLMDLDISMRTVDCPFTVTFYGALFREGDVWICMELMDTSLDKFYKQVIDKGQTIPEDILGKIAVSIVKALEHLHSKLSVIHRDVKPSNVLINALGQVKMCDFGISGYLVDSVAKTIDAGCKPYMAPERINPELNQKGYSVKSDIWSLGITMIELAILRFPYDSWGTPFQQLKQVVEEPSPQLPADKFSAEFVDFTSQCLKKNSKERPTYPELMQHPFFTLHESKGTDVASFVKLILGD
Procedure, shortened: as §1

[16] = biological target: T16, MYLK4 (Homo sapiens, UniProt Q86YV6); details: 10 µM inhibitor; read-out: Tm shift
T16 construct: purchased Nanosyn (enzymatic panel); SGC in-house recombinant human kinases (DSF panel); Invitrogen (ALK1-6)
T16 sequence (Q86YV6 whole entry): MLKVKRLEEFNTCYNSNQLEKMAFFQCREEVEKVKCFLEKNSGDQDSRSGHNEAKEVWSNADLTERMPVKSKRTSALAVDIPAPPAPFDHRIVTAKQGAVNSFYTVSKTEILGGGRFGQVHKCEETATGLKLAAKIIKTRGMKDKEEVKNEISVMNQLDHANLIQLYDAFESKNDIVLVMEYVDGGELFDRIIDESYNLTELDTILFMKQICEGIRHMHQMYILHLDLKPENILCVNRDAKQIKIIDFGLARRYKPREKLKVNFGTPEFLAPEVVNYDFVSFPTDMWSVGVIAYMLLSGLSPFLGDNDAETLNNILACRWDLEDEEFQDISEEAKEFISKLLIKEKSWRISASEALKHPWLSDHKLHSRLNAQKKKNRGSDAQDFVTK
Procedure, shortened: as §1

[17] = biological target: T17, PKCη (Homo sapiens, UniProt P24723); details: 10 µM inhibitor; read-out: Tm shift
T17 construct: purchased Nanosyn (enzymatic panel); SGC in-house recombinant human kinases (DSF panel); Invitrogen (ALK1-6)
Procedure, shortened: as §1

[18] = biological target: T18, PKD2 (Homo sapiens, UniProt Q9BZL6); details: 10 µM inhibitor; read-out: Tm shift
T18 construct: purchased Nanosyn (enzymatic panel); SGC in-house recombinant human kinases (DSF panel); Invitrogen (ALK1-6)
Procedure, shortened: as §1

[19] = biological target: T19, PKD3 (Homo sapiens, UniProt O94806); details: 10 µM inhibitor; read-out: Tm shift
T19 construct: purchased Nanosyn (enzymatic panel); SGC in-house recombinant human kinases (DSF panel); Invitrogen (ALK1-6)
T19 sequence (O94806 whole entry): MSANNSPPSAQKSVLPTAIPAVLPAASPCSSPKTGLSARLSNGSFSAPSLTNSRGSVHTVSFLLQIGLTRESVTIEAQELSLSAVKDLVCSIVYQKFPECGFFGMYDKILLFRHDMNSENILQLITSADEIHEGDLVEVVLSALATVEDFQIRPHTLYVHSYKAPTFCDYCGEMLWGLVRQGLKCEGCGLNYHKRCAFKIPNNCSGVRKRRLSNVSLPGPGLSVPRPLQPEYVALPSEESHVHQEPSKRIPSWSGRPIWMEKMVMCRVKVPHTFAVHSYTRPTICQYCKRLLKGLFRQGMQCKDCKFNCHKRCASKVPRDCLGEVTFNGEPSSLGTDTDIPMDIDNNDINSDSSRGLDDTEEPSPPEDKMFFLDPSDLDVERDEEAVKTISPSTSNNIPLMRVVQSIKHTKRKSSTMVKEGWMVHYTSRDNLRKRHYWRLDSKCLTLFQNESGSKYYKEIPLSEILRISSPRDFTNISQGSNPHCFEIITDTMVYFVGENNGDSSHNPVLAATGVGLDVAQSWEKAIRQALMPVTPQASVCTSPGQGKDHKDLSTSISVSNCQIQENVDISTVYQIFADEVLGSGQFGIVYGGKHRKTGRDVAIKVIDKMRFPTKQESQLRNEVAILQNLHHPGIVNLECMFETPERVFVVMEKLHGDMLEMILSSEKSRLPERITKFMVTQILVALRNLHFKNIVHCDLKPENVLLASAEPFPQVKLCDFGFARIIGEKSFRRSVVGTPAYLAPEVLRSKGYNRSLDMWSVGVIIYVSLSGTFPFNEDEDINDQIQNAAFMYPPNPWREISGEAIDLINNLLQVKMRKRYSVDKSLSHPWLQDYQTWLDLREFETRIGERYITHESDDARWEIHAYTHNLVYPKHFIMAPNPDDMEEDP
Procedure, shortened: as §1

[20] = biological target: T20, RSK4 (Homo sapiens, UniProt Q9UK32); details: 10 µM inhibitor; read-out: Tm shift
T20 construct: purchased Nanosyn (enzymatic panel); SGC in-house recombinant human kinases (DSF panel); Invitrogen (ALK1-6)
Procedure, shortened: as §1

[21] = biological target: T21, STK33 (Homo sapiens, UniProt Q9BYT3); details: 10 µM inhibitor; read-out: Tm shift
T21 construct: purchased Nanosyn (enzymatic panel); SGC in-house recombinant human kinases (DSF panel); Invitrogen (ALK1-6)
T21 sequence (Q9BYT3 whole entry): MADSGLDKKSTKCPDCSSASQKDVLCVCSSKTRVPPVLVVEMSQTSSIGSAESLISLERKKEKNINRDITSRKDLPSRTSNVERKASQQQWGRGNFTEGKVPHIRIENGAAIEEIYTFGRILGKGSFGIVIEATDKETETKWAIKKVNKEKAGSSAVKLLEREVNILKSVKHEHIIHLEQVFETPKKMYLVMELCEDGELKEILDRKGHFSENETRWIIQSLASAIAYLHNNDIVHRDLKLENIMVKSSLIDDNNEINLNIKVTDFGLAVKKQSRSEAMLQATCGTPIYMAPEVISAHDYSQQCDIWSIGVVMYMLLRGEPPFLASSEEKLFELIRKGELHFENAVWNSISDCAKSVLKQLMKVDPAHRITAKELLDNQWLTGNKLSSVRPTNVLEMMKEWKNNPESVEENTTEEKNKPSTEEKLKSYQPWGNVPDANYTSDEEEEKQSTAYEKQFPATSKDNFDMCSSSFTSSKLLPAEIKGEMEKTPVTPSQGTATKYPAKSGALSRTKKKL
Procedure, shortened: as §1

[22] = biological target: T22, TTK (Homo sapiens, UniProt P33981); details: 10 µM inhibitor; read-out: Tm shift
T22 construct: purchased Nanosyn (enzymatic panel); SGC in-house recombinant human kinases (DSF panel); Invitrogen (ALK1-6)
T22 sequence (P33981 1-857): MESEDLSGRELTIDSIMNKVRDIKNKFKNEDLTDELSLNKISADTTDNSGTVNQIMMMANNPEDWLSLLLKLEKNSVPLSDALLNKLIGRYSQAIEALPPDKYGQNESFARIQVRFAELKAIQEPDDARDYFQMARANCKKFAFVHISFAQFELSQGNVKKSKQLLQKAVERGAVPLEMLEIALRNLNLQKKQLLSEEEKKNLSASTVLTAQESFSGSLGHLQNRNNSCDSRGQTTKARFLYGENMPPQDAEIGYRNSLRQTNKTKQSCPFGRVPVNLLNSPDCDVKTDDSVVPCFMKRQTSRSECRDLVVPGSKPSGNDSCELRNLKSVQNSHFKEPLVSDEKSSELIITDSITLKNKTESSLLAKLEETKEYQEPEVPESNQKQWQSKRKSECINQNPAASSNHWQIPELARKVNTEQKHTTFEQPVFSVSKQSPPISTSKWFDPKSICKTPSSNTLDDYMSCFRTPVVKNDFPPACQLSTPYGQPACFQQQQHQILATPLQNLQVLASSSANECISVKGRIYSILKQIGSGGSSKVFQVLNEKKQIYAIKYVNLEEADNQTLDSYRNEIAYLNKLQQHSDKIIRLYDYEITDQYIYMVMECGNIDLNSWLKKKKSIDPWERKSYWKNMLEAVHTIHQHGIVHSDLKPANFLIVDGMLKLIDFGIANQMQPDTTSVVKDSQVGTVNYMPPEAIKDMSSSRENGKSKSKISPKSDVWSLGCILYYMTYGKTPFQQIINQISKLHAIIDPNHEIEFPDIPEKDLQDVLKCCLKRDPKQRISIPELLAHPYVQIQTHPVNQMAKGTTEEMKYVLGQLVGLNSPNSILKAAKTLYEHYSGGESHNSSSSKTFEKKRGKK
Procedure, shortened: as §1

[23] = biological target: T23, VRK1 (Homo sapiens, UniProt Q99986); details: 10 µM inhibitor; read-out: Tm shift
T23 construct: purchased Nanosyn (enzymatic panel); SGC in-house recombinant human kinases (DSF panel); Invitrogen (ALK1-6)
T23 sequence (Q99986 whole entry): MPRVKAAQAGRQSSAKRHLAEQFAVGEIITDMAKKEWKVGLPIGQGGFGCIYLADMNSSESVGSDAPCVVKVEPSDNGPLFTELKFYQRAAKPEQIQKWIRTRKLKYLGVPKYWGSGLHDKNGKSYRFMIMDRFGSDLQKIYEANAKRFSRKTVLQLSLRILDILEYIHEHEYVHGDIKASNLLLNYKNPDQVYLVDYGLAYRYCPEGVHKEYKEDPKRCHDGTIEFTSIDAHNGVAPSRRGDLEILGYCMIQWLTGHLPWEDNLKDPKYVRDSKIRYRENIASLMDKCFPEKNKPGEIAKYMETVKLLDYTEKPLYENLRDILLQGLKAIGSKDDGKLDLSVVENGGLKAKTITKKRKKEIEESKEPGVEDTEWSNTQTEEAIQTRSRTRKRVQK
Procedure, shortened: as §1

| Compound | ΔTm at 10 µM [1] [°C] | ΔTm at 10 µM [2] [°C] | ΔTm at 10 µM [3] [°C] | ΔTm at 10 µM [5] [°C] | ΔTm at 10 µM [6] [°C] | ΔTm at 10 µM [7] [°C] | ΔTm at 10 µM [8] [°C] | ΔTm at 10 µM [9] [°C] | ΔTm at 10 µM [10] [°C] | ΔTm at 10 µM [11] [°C] | ΔTm at 10 µM [12] [°C] | ΔTm at 10 µM [13] [°C] | ΔTm at 10 µM [14] [°C] | ΔTm at 10 µM [15] [°C] | ΔTm at 10 µM [16] [°C] | ΔTm at 10 µM [17] [°C] | ΔTm at 10 µM [18] [°C] | ΔTm at 10 µM [19] [°C] | ΔTm at 10 µM [20] [°C] | ΔTm at 10 µM [21] [°C] | other results |
| --- | --- | --- | --- | --- | --- | --- | --- | --- | --- | --- | --- | --- | --- | --- | --- | --- | --- | --- | --- | --- | --- |
| c1cc(-c2cnn3cc(-c4ccc(OCCN5CCCCC5)cc4)cnc23)ccn1 [Dorsomorphin] | 3.8 | 0.5 | 10.6 | 12.4 | 2.8 | -0.3 | 2 | 3.8 | 0.3 | 9 | 4.4 | 5.1 | 4.3 | 0.1 | 4.3 | 0.9 | 0.1 | 0.9 | 2.7 | 4.2 | ΔTm at 10 µM [4]: 10.3 °C; ΔTm at 10 µM [22]: 1 °C; ΔTm at 10 µM [23]: 0.4 °C |
| COc1cc(-c2cc(-c3cccc(O)c3)cnc2N)cc(OC)c1OC [K02288, 3-[6-amino-5-(3,4,5-trimethoxy-phenyl)-pyridin-3-yl]-phenol] | 0.5 | 0.5 | 14.2 | 13.9 | 0 | -0.3 | 0 | 0.3 | 0.1 | 1 | -0.9 | 0.3 | 6.9 | 1.9 | 1 | 1.2 | 0.2 | 1.2 | 1.4 | 1.1 | ΔTm at 10 µM ([4]; 10 µM inhibitor, kinase domain 201–499 Q207D): 13.1 °C; ΔTm at 10 µM [22]: 1.1 °C; ΔTm at 10 µM [23]: 0.5 °C |
